Reference: paper PMC11304990, “Identification of mitochondrial ATP synthase as the cellular target of Ru-polypyridyl-β-carboline complexes by affinity-based protein profiling” (National Science Review, 2024)

Columns and labels:
[1] = system: cervical carcinoma (HeLa); test: MTT antiproliferative assay, HeLa; format: cell-based, human; conditions: 72 h
Source text: Ru3–Ru9 also show a certain selectivity for cancer cells over normal cells, and Ru2, Ru3, Ru5 and Ru9 show higher selectivity index (SI) values than the other complexes.
PA-BPP was then used to confirm the molecular targets of Ru5 by modifying it with a ‘minimalist’ biorthogonal handle-containing photo-cross-linker. Through our structure–activity relationship analysis and comparison with other ruthenium complexes utilizing phen as the auxiliary ligands with similar coordination structures (using cisplatin as a control), we propose that the β-carboline ligands play an important role in antiproliferative activity. To maintain the binding characteristics of the β-carboline moiety with the targeted biomolecules, we linked the photo-cross-linker to one of the auxiliary ligands of Ru5.

[2] = molecular target: ATPase (mitochondrial ATP synthase); test: Inhibition of the enzymatic activity of ATPase in vitro; format: biochemical; conditions: read-out: Inhibition constant (Ki)
Description: (§1) Figure 1. Validation of ATP5F1 as the molecular target of Ru5. (A) Proteins pulled down by streptavidin from A549 cells treated with Ru5a followed by PAL. The cells were treated with Ru5a (50 μM) for 12 h and irradiated with UV light for 20 min. (B) The top five peptides enriched by Ru5a-mediated PAL were identified with the assistance of SILAC-based chemoproteomic studies. H1F0: H1 histone family member 0; HIST4H4: histone cluster 4 H4; HIST3H2BB: histone cluster 3 H2B family member b; ATP5F1E: ATP synthase F1 subunit epsilon; HIST1H2AJ: histone cluster 1 H2A family member J. (C) Pull-down western blotting analysis of ATPase in A549 cells treated with Ru5a. (D) Cellular Ru content in cells treated with Ru5/Ru5a (20 μM, 12 h) measured by ICP-MS. (E) Impact of Ru5/Ru5a (10 μM) on the thermal stability of ATP5F1 measured by CETSA. (F) Impact on the anticancer activities of Ru5/Ru5a against wild type and ATPase knocking down (by siRNA) A549 cells. The relative cellular viability was calculated using the cells without drug treatment in each group as the control group. (G) Inhibition of Ru5/Ru5a on the enzymatic activity of ATPase. (-)-blebbistatin was used as the positive control. (H) Molecular docking of Ru5 with ATPase (PDB: 3ZIA). The red dashes indicate the hydrogen bonds formed between Ru5 and the amino acid residues (SER38 and GLN39). The yellow dashes indicate the hydrophobic interaction between Ru5 and the amino acid residues (ASN15 and GLN19). Data are presented as means ± SD from three independent experiments. TEXT PRINTED IN THE PICTURE: (B) Ru5a: Log2 (fold change) (Ru5a/DMSO): 1.43 (Protein name: H1F0); Log2 (fold change) (Ru5a/DMSO): 1.23 (Protein name: HIST4H4); Log2 (fold change) (Ru5a/DMSO): 1.22 (Protein name: HIST3H2BB); Log2 (fold change) (Ru5a/DMSO): 1.21 (Protein name: ATP5F1E); Log2 (fold change) (Ru5a/DMSO): 1.12 (Protein name: HIST1H2AJ) DOUBTS OF THE COPYIST ABOUT THIS PICTURE: Panel B: the table rows are proteins enriched by Ru5a, not separate substances. […]

A549 cells = test: Anticancer activity in wild type vs ATPase siRNA knockdown cells; format: cell-based, human; conditions: compared to wild-type cells
Description: as §1, with “GLN39).” for “GLN39). The yellow dashes indicate the hydrophobic interaction between Ru5 and the amino acid residues (ASN15 and GLN19). Data are presented as means ± SD from three independent experiments. TEXT PRINTED IN THE PICTURE: (B) Ru5a: Log2 (fold change) (Ru5a/DMSO): 1.43 (Protein name: H1F0); Log2 (fold change) (Ru5a/DMSO): 1.23 (Protein name: HIST4H4); Log2 (fold change) (Ru5a/DMSO): 1.22 (Protein name: HIST3H2BB); Log2 (fold change) (Ru5a/DMSO): 1.21 (Protein name: ATP5F1E); Log2 (fold change) (Ru5a/DMSO): 1.12 (Protein name: HIST1H2AJ) DOUBTS OF THE COPYIST ABOUT THIS PICTURE: Panel B: the table rows are proteins enriched by Ru5a, not separate substances.”

For `F[P-](F)(F)(F)(F)F.F[P-](F)(F)(F)(F)F.[Ru+2].c1ccc2c(c1)[nH]c1c(-c3ncc[nH]3)nccc12.c1cnc2c(c1)ccc1cccnc12.c1cnc2c(c1)ccc1cccnc12` [Ru5], the IC50 [1] was 3.1 ± 0.7 µM, the Ki [2] was 6.2 ± 1.4 µM and the “Effect of siRNA-mediated knockdown of ATPase on anticancer effects” value (A549 cells) was “alleviates”.
